For test [1], the system named is Dengue-2 (Strain New Guinea C). Briefly: Viral yield assay against Dengue-2 in Vero cells. As to conditions: Dengue virus, read-out: Activity (EC50 in μM) DENV-2. The format is cell-based, Dengue virus. The procedure, abridged:
(§1)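 Yield reduction, Vero; MOI 0.1; compound vs DMSO; 37° C; harvest 48 h p.i.; titer on Vero; EC50 fitted. Other serotypes run the same way.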

The subject of a further test is DENV-1. Kind of test: Viral yield assay against DENV-1 in Vero cells. The format is cell-based. As to conditions: Dengue virus. The method in brief: as §1
In another test the test system is DENV-3. Kind of test: Viral yield assay against DENV-3 in Vero cells. It is filed as cell-based. As to conditions: Dengue virus. The method in brief:
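Vero cells were infected with dengue-2 at MOI 0.1, treated with compound (DMSO control), and kept at 37° C. They were harvested 48 hours post infection and yield was titered on Vero cells. EC50 came from the yield curve, and the other serotypes were run in a similar way.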

Another test deals with DENV-4. Kind of test: Viral yield assay against DENV-4 in Vero cells. It is filed as cell-based. Particulars: Dengue virus. The procedure, abridged:
as §1

The mark [2] stands for this setting: DENV2, viral yield assay, Vero cells, MOI 0.1, 48 hours post infection.

Read-outs that look alike come from different tables or passages of the source. A value given as a limit tells only on which side of the number the result lay.

The EC50 is the concentration at which the effect is half-maximal. Take `O=C(O)CNc1c(C(=O)Nc2cccc(C(F)(F)F)c2)sc2nc(-c3cccs3)ccc12` [Compound 305, 2-[[6-(2-thienyl)-2-[[3-(trifluoromethyl)phenyl]carbamoyl]thieno[2,3-b]pyridin-3-yl]amino]acetic acid]: the EC50 is less than 5 µM in test [1] (DENV2, Vero cells); less than 5 µM in the test with DENV-1 (DENV1); 5 to 25 µM in the test with DENV-3 (DENV3); less than 5 µM with DENV-4 (DENV4).
On to `COc1cccc(-c2ccc3c(N)c(C(=O)Nc4ccc(C)c(C)c4)sc3n2)c1` [Compound 546, 3-amino-N-(3,4-dimethylphenyl)-6-(3-methoxyphenyl)thieno[2,3-b]pyridine-2-carboxamide], for which the EC50 in test [1] (setting [2]) is less than 5 µM; in the test with DENV-1 (DENV1, viral yield assay), less than 5 µM; in the test with DENV-3 (DENV3, viral yield assay) it was less than 5 µM; in the test on DENV-4 (DENV4, viral yield assay) it was less than 5 µM.
Regarding `CC(=O)c1ccc(NC(=O)c2sc3nc(-c4cccs4)ccc3c2N)cc1` [Compound 429, N-(4-acetylphenyl)-3-amino-6-(2-thienyl)thieno[2,3-b]pyridine-2-carboxamide], the EC50 in test [1] (setting [2]) is less than 5 µM; with DENV-1 (DENV1, viral yield assay), less than 5 µM; with DENV-3 (DENV3, viral yield assay), less than 5 µM; in the test on DENV-4 (DENV4, viral yield assay), less than 5 µM.
As for `Cc1ccnc2sc(C(=O)Nc3nnc(-c4ccccc4)s3)c(N)c12` [Compound 288, 3-amino-4-methyl-N-(5-phenyl-1,3,4-thiadiazol-2-yl)thieno[2,3-b]pyridine-2-carboxamide], the EC50 in test [1] (setting [2]) was less than 5 µM; in the test with DENV-1 (DENV1, viral yield assay), less than 5 µM; in the test on DENV-3 (DENV3, viral yield assay), 5 to 25 µM; with DENV-4 (DENV4, viral yield assay), less than 5 µM.
`Nc1c(C(=O)Nc2ccc(Cl)c(Cl)c2)sc2nc(-c3cccs3)ccc12` [Compound 413, 3-amino-N-(3,4-dichlorophenyl)-6-(2-thienyl)thieno[2,3-b]pyridine-2-carboxamide]: the half-maximal effective concentration (EC50) was less than 5 µM in test [1] (setting [2]); less than 5 µM in the test on DENV-1 (DENV1, viral yield assay); less than 5 µM in the test on DENV-3 (DENV3, viral yield assay); less than 5 µM in the test on DENV-4 (DENV4, viral yield assay).
As to `Nc1c(C(=O)Nc2ccc(Cl)nc2)sc2nc(-c3ccc(Cl)cc3)ccc12` [Compound 353, 3-amino-6-(4-chlorophenyl)-N-(6-chloro-3-pyridyl)thieno [2,3-b]pyridine-2-carboxamide], the EC50 was less than 5 µM in test [1] (setting [2]); less than 5 µM in the test on DENV-1 (DENV1, viral yield assay); less than 5 µM in the test on DENV-3 (DENV3, viral yield assay); less than 5 µM in the test on DENV-4 (DENV4, viral yield assay).
As to `Nc1c(C(=O)Nc2ccc(Cl)c(Cl)c2)sc2nc(-c3ccc(Cl)cc3)ccc12` [Compound 342, 3-amino-6-(4-chlorophenyl)-N-(3,4-dichloro-phenyl)thieno [2,3-b]pyridine-2-carboxamide], the 50% effective concentration (EC50) in test [1] (setting [2]) was less than 5 µM; in the test with DENV-1 (DENV1, viral yield assay) it was less than 5 µM; with DENV-3 (DENV3, viral yield assay) it was less than 5 µM; in the test with DENV-4 (DENV4, viral yield assay), less than 5 µM.
As for `COC(=O)c1ccc(NC(=O)c2sc3nc(-c4ccc(Cl)cc4)ccc3c2N)cc1` [Compound 645, methyl 4-[[3-amino-6-(4-chlorophenyl)thieno[2,3-b]pyridine-2-carbonyl]amino]benzoate], the EC50 in test [1] (setting [2]) is less than 5 µM; in the test with DENV-1 (DENV1, viral yield assay), less than 5 µM; in the test on DENV-3 (DENV3, viral yield assay), less than 5 µM; with DENV-4 (DENV4, viral yield assay), less than 5 µM.
For the molecule `NCCNc1c(C(=O)Nc2nnc(-c3ccccc3)s2)sc2nc(Cl)ccc12` [Compound 300, 3-(2-aminoethylamino)-6-chloro-N-(5-phenyl-1,3,4-thiadiazol-2-yl)thieno[2,3-b]pyridine-2-carboxamide], the EC50 is less than 5 µM in test [1] (DENV2, Vero cells); less than 5 µM in the test with DENV-1 (DENV1); less than 5 µM with DENV-3 (DENV3); less than 5 µM in the test on DENV-4 (DENV4).
As for `CNc1c(C(=O)Nc2nnc(-c3ccccc3)s2)sc2nc3c(cc12)CCCCC3` [Compound 359, 3-(methylamino)-N-(5-phenyl-1,3,4-thiadiazol-2-yl)-6,7,8,9-tetrahydro-5H-cyclohepta[b]thieno[3,2-e]pyridine-2-carboxamide], the EC50 is less than 5 µM in test [1] (DENV2, Vero cells); less than 5 µM in the test with DENV-1 (DENV1); greater than 25 µM with DENV-3 (DENV3); 5 to 25 µM in the test on DENV-4 (DENV4).
`COc1ccc(-c2ccc3c(N)c(C(=O)Nc4ccc(Cl)cc4)sc3n2)cc1` [Compound 493, 3-amino-N-(4-chlorophenyl)-6-(4-methoxyphenyl)thieno[2,3-b]pyridine-2-carboxamide]: the EC50 in test [1] (setting [2]) is less than 5 µM; in the test with DENV-1 (DENV1, viral yield assay), less than 5 µM; in the test on DENV-3 (DENV3, viral yield assay) it was less than 5 µM; with DENV-4 (DENV4, viral yield assay) it was less than 5 µM.
On to `Nc1c(C(=O)Nc2cccc(Cl)c2Cl)sc2nc(-c3cccs3)ccc12` [Compound 434, 3-amino-N-(2,3-dichlorophenyl)-6-(2-thienyl)thieno[2,3-b]pyridine-2-carboxamide], for which the EC50 in test [1] (setting [2]) was less than 5 µM; in the test on DENV-1 (DENV1, viral yield assay), less than 5 µM; in the test on DENV-3 (DENV3, viral yield assay) it was less than 5 µM; with DENV-4 (DENV4, viral yield assay) it was less than 5 µM.
With `Nc1c(C(=O)Nc2cccc(F)c2)sc2nc(-c3ccc(F)cc3)ccc12` [Compound 489, 3-amino-N-(3-fluroophenyl)-6-(4-fluroophenyl)thieno[2,3-b]pyridine-2-carboxamide], the EC50 in test [1] (setting [2]) was less than 5 µM; in the test on DENV-1 (DENV1, viral yield assay), less than 5 µM; with DENV-3 (DENV3, viral yield assay), less than 5 µM; in the test with DENV-4 (DENV4, viral yield assay) it was less than 5 µM.
Regarding `NCC(=O)Nc1c(C(=O)Nc2nnc(-c3ccccc3)s2)sc2nc(Cl)ccc12` [Compound 361, 3-[(2-aminoacetyl)amino]-6-chloro-N-(5-phenyl-1,3,4-thiadiazol-2-yl)thieno[2,3-b]pyridine-2-carboxamide], the concentration for a half-maximal effect (EC50) in test [1] (DENV2, Vero cells) was less than 5 µM; in the test on DENV-1 (DENV1), less than 5 µM; in the test with DENV-3 (DENV3), less than 5 µM; in the test with DENV-4 (DENV4) it was greater than 25 µM.
With `CC(F)(F)c1ccc(NC(=O)c2sc3nc(-c4ccc(Cl)cc4)ccc3c2N)cc1` [Compound 338, 3-amino-6-(4-chlorophenyl)-N-[4-(1,1-difluoro-ethyl)phenyl] thieno[2,3-b] pyridine-2-carboxamide], the EC50 in test [1] (setting [2]) is less than 5 µM; with DENV-1 (DENV1, viral yield assay) it was less than 5 µM; in the test with DENV-3 (DENV3, viral yield assay) it was less than 5 µM; with DENV-4 (DENV4, viral yield assay), less than 5 µM.
As for `Cc1ccc(C)c(NC(=O)c2sc3nc(-c4cccs4)ccc3c2N)c1` [Compound 438, 3-amino-N-(2,5-dimethylphenyl)-6-(2-thienyl)thieno[2,3-b]pyridine-2-carboxamide], the EC50 is less than 5 µM in test [1] (setting [2]); less than 5 µM with DENV-1 (DENV1, viral yield assay); less than 5 µM with DENV-3 (DENV3, viral yield assay); less than 5 µM with DENV-4 (DENV4, viral yield assay).
Regarding `Nc1c(C(=O)Nc2ccc(C(F)(F)F)cc2)sc2nc(-c3ccc4c(c3)OCO4)ccc12` [Compound 452, 3-amino-6-(1,3-benzodioxol-5-yl)-N-[4-(trifluoromethyl)phenyl]thieno[2,3-b] pyridine-2-carboxamide], the concentration giving a half-maximal response (EC50) is less than 5 µM in test [1] (setting [2]); less than 5 µM in the test on DENV-1 (DENV1, viral yield assay); less than 5 µM in the test with DENV-3 (DENV3, viral yield assay); less than 5 µM in the test with DENV-4 (DENV4, viral yield assay).
With `Nc1c(C(=O)Nc2ccc(Cl)cc2F)sc2nc(-c3ccc4c(c3)OCO4)ccc12` [Compound 598, 3-amino-6-(1,3-benzodioxol-5-yl)-N-(4-chloro-2-fluoro-phenyl)thieno[2,3-b] pyridine-2-carboxamide], the 50% effective concentration (EC50) in test [1] (setting [2]) is less than 5 µM; in the test on DENV-1 (DENV1, viral yield assay), less than 5 µM; in the test on DENV-3 (DENV3, viral yield assay), less than 5 µM; in the test with DENV-4 (DENV4, viral yield assay), less than 5 µM.
In the case of `COc1cccc(-c2ccc3c(N)c(C(=O)Nc4ccc(OC)cc4C)sc3n2)c1` [Compound 507, 3-amino-N-(4-methoxy-2-methyl-phenyl)-6-(3-methoxyphenyl)thieno[2,3-b] pyridine-2-carboxamide], the EC50 is less than 5 µM in test [1] (setting [2]); less than 5 µM with DENV-1 (DENV1, viral yield assay); less than 5 µM with DENV-3 (DENV3, viral yield assay); less than 5 µM in the test on DENV-4 (DENV4, viral yield assay).
Take `COc1ccc(-c2ccc3c(N)c(C(=O)Nc4cccc(C(F)(F)F)c4)sc3n2)cc1` [Compound 472, 3-amino-6-(4-methoxyphenyl)-N-[3-(trifluoromethyl)phenyl]thieno[2,3-b] pyridine-2-carboxamide]: the EC50 in test [1] (setting [2]) is less than 5 µM; in the test on DENV-1 (DENV1, viral yield assay), less than 5 µM; in the test with DENV-3 (DENV3, viral yield assay) it was less than 5 µM; in the test on DENV-4 (DENV4, viral yield assay), less than 5 µM.
Consider `COc1ccc(NC(=O)c2sc3nc(-c4cccc(OC)c4)ccc3c2N)cc1` [Compound 506, 3-amino-6-(3-methoxyphenyl)-N-(4-methoxyphenyl)thieno[2,3-b]pyridine-2-carboxamide], for which the EC50 in test [1] (setting [2]) was less than 5 µM; with DENV-1 (DENV1, viral yield assay) it was less than 5 µM; in the test on DENV-3 (DENV3, viral yield assay) it was less than 5 µM; in the test with DENV-4 (DENV4, viral yield assay), less than 5 µM.
Consider `CCCCNc1c(C(=O)Nc2nnc(-c3ccccc3)s2)sc2nc3c(cc12)CCCCC3` [Compound 289, 3-(butylamino)-N-(5-phenyl-1,3,4-thiadiazol-2-yl)-6,7,8,9-tetrahydro-5H-cyclohepta[b]thieno[3,2-e]pyridine-2-carboxamide], for which the EC50 in test [1] (DENV2, Vero cells) is less than 5 µM; in the test on DENV-1 (DENV1), less than 5 µM; in the test with DENV-3 (DENV3), less than 5 µM; in the test on DENV-4 (DENV4), less than 5 µM.
Take `COc1ccc(-c2ccc3c(N)c(C(=O)Nc4ccc(C(C)=O)cc4)sc3n2)cc1` [Compound 494, N-(4-acetylphenyl)-3-amino-6-(4-methoxyphenyl)thieno[2,3-b]pyridine-2-carboxamide]: the EC50 in test [1] (DENV2, Vero, 48 h) is less than 5 µM; in the test with DENV-1 (DENV1, viral yield assay) it was less than 5 µM; in the test on DENV-3 (DENV3, viral yield assay), 5 to 25 µM; in the test with DENV-4 (DENV4, viral yield assay), less than 5 µM.
As for `Nc1c(C(=O)Nc2cccc(F)c2)sc2nc(-c3ccc4c(c3)OCO4)ccc12` [Compound 602, 3-amino-6-(1,3-benzodioxol-5-yl)-N-(3-fluorophenyl)thieno[2,3-b]pyridine-2-carboxamide], the EC50 was less than 5 µM in test [1] (DENV2, Vero, 48 h); less than 5 µM in the test with DENV-1 (DENV1, viral yield assay); less than 5 µM with DENV-3 (DENV3, viral yield assay); 5 to 25 µM in the test on DENV-4 (DENV4, viral yield assay).

Values taken from patent publication US20170121344A1 (Siga Technologies, Inc., priority 2009, published 2017).
